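The compound was tested at five concentrations on cells cultured in 96-well plates, with a 48-hour exposure period. GI50: concentration for 50% inhibition of growth.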 The source made the active and inactive calls. No stated cut-off is given here; in the data, active = GI50 up to about 1.1 µM and inactive = higher.
How the values were obtained:
Assay in all cases: NCI anticancer screen, dose series, 48 h
SF-539 = tested on: SF-539
ACHN = tested on: ACHN
UACC-257 = tested on: UACC-257
OVCAR-3 = tested on: OVCAR-3
LOX IMVI = tested on: LOX IMVI
SNB-19 = tested on: SNB-19
SF-268 = tested on: SF-268
SK-MEL-28 = tested on: SK-MEL-28
SR = tested on: SR
LXFL 529 = tested on: LXFL 529
DMS-273 = tested on: DMS-273
HCT-15 = tested on: HCT-15
IGROV-1 = tested on: IGROV-1
K562 = tested on: K562
NCI-H460 = tested on: NCI-H460
M19-MEL = tested on: M19-MEL
Malme-3M = tested on: Malme-3M
786-0 = tested on: 786-0
SK-MEL-5 = tested on: SK-MEL-5
RXF 393 = tested on: RXF 393
SNB-78 = tested on: SNB-78
UO-31 = tested on: UO-31
UACC-62 = tested on: UACC-62
TK-10 = tested on: TK-10
SK-OV-3 = tested on: SK-OV-3
COLO 205 = tested on: COLO 205
RPMI-8226 = tested on: RPMI-8226
SN12C = tested on: SN12C
A549 = tested on: A549
NCI-H522 = tested on: NCI-H522
KM12 = tested on: KM12
EKVX = tested on: EKVX
HOP-62 = tested on: HOP-62
MOLT-4 = tested on: MOLT-4
SK-MEL-2 = tested on: SK-MEL-2
KM-20L2 = tested on: KM-20L2
NCI-H23 = tested on: NCI-H23
HCC 2998 = tested on: HCC 2998
OVCAR-8 = tested on: OVCAR-8
SW-620 = tested on: SW-620
U-251 = tested on: U-251
SF-295 = tested on: SF-295
HL-60 = tested on: HL-60
CCRF-CEM = tested on: CCRF-CEM
HCT-116 = tested on: HCT-116
OVCAR-5 = tested on: OVCAR-5
DMS-114 = tested on: DMS-114
M14 = tested on: M14
SNB-75 = tested on: SNB-75
HOP-92 = tested on: HOP-92
HT-29 = tested on: HT-29
OVCAR-4 = tested on: OVCAR-4

Measured: GI50

O=C(CC(=O)C(F)(F)F)c1csc2ccccc12
inactive: SF-539 31.6 µM | ACHN 34.5 µM | UACC-257 32.9 µM | OVCAR-3 40.9 µM | LOX IMVI 25 µM | SNB-19 37.2 µM | SF-268 30.8 µM | SK-MEL-28 14.1 µM | SR 17.5 µM | LXFL 529 21.7 µM | DMS-273 25 µM | IGROV-1 23.7 µM | K562 24.8 µM | NCI-H460 19.1 µM | M19-MEL 32.8 µM | Malme-3M 26.4 µM | 786-0 36.7 µM | SK-MEL-5 26.9 µM | RXF 393 3.13 µM | SNB-78 37.4 µM | UO-31 27.9 µM | UACC-62 32.2 µM | TK-10 4.28 µM | SK-OV-3 18 µM | COLO 205 38.5 µM | RPMI-8226 24.8 µM | SN12C 25 µM | A549 62.2 µM | NCI-H522 23.9 µM | KM12 38.9 µM | EKVX 33.4 µM | HOP-62 22.5 µM | MOLT-4 17.8 µM | SK-MEL-2 22 µM | KM-20L2 39.3 µM | NCI-H23 29.4 µM | HCC 2998 48.9 µM | OVCAR-8 18.5 µM | SW-620 38.5 µM | U-251 34.7 µM | SF-295 10.4 µM | HL-60 > 10 µM | CCRF-CEM 20.4 µM | HCT-116 34 µM | OVCAR-5 53 µM | DMS-114 31 µM | M14 23.6 µM
29.2 µM: HCT-15

COC(=O)C(Cc1ccccc1)/N=C/c1c(O)c(O)c(C(C)C)c2cc(C)c(-c3c(C)cc4c(C(C)C)c(O)c(O)c(/C=N/C(Cc5ccccc5)C(=O)OC)c4c3O)c(O)c12 (stereo not drawn)
inactive: SF-539 17 µM | ACHN 32.1 µM | SNB-75 67.9 µM | UACC-257 21.6 µM | OVCAR-3 17 µM | HOP-92 23.8 µM | SNB-19 31.8 µM | SF-268 29.5 µM | SK-MEL-28 28.8 µM | SR 2.36 µM | LXFL 529 18 µM | IGROV-1 28.7 µM | K562 18.7 µM | NCI-H460 23 µM | M19-MEL 36.8 µM | Malme-3M 40.6 µM | HT-29 17.6 µM | RXF 393 15 µM | SNB-78 6.21 µM | UO-31 22.3 µM | OVCAR-4 21.3 µM | UACC-62 22.5 µM | SK-OV-3 23.7 µM | COLO 205 30.3 µM | RPMI-8226 22.4 µM | NCI-H522 21.6 µM | KM12 16.1 µM | HOP-62 31.8 µM | MOLT-4 2.38 µM | SK-MEL-2 20.9 µM | KM-20L2 20 µM | NCI-H23 26.4 µM | U-251 17.3 µM | SF-295 15.8 µM | HL-60 18.9 µM | CCRF-CEM 7.82 µM | HCT-116 > 10 µM | OVCAR-5 15.5 µM | DMS-114 > 10 µM | M14 > 10 µM
